From ChEMBL document CHEMBL5291721, “A preclinical secondary pharmacology resource illuminates target-adverse drug reaction associations of marketed drugs” (Nat Commun, 2023)

How the values were obtained:
[1] = target: T1, Cholecystokinin receptor type A (Homo sapiens, UniProt P32238)
T1 sequence (P32238 whole entry): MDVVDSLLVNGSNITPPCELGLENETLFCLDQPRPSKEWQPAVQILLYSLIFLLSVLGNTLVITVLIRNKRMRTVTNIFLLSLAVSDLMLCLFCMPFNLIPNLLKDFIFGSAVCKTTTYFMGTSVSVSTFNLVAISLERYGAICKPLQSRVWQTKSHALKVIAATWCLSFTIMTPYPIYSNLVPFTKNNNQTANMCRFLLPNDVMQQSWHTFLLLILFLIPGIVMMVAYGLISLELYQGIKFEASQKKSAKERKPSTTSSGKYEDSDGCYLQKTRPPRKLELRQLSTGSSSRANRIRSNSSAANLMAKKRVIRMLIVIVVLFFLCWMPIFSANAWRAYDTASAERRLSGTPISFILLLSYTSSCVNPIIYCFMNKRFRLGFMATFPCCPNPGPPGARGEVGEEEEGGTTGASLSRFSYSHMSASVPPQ

[2] = target: cGMP-inhibited 3',5'-cyclic phosphodiesterase 3A (Homo sapiens, UniProt Q14432); type: functional
Chain of cGMP-inhibited 3',5'-cyclic phosphodiesterase 3A (Q14432 whole entry): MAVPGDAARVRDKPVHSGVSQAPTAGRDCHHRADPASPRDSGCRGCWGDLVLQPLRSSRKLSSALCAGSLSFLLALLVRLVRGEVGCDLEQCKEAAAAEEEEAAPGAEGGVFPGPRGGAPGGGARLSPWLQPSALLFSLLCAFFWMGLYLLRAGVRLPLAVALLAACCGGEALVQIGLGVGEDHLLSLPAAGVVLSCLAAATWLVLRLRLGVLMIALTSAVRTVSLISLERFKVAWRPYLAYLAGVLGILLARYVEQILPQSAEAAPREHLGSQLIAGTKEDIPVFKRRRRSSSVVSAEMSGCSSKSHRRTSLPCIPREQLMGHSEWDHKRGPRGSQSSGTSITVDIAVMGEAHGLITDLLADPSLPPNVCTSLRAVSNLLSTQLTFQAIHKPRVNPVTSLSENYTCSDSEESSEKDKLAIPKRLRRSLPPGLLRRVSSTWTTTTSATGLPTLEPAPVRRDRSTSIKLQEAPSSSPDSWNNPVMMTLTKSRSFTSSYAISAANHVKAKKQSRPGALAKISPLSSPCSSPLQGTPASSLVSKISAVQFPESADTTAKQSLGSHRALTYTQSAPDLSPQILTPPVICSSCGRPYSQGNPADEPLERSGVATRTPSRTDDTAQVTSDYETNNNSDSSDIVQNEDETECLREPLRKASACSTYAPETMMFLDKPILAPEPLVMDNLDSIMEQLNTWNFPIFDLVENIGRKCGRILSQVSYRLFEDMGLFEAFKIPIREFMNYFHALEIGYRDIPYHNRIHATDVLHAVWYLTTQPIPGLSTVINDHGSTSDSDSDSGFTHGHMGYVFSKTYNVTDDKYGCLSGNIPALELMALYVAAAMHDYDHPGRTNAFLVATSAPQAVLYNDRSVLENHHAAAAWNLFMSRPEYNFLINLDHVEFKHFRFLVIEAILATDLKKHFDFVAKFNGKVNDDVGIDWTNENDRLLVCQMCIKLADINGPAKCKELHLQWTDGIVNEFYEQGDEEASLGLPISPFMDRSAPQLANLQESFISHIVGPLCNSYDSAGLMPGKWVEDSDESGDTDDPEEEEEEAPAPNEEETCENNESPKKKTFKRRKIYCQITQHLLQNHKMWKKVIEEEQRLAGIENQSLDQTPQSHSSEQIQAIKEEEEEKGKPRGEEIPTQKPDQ

Vasopressin V1a receptor = Vasopressin V1a receptor (Homo sapiens, UniProt P37288)
[3] = target: T2, Prostaglandin G/H synthase 1 (Rattus norvegicus, UniProt Q63921); type: functional
T2 sequence (Q63921 whole entry): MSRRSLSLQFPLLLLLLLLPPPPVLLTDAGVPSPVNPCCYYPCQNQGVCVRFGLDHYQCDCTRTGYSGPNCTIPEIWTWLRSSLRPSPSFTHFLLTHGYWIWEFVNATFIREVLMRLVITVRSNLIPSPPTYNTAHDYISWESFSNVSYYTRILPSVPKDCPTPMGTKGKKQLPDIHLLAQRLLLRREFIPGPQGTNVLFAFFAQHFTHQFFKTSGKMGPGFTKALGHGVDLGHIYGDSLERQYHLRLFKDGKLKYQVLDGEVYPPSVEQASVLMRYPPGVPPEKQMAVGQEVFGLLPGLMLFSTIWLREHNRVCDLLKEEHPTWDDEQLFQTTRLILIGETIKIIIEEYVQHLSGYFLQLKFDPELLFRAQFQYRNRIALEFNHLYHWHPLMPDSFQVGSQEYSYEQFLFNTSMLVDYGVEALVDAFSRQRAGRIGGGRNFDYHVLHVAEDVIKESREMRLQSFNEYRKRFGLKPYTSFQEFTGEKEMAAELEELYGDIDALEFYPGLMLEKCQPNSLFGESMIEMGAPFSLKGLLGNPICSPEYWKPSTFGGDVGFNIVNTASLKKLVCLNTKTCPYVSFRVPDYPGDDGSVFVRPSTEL

[4] = target: Growth hormone secretagogue receptor type 1 (Homo sapiens, UniProt Q92847)
[5] = target: 3',5'-cyclic-AMP phosphodiesterase 4D (Homo sapiens, UniProt Q08499); type: functional
Chain of 3',5'-cyclic-AMP phosphodiesterase 4D (Q08499 whole entry): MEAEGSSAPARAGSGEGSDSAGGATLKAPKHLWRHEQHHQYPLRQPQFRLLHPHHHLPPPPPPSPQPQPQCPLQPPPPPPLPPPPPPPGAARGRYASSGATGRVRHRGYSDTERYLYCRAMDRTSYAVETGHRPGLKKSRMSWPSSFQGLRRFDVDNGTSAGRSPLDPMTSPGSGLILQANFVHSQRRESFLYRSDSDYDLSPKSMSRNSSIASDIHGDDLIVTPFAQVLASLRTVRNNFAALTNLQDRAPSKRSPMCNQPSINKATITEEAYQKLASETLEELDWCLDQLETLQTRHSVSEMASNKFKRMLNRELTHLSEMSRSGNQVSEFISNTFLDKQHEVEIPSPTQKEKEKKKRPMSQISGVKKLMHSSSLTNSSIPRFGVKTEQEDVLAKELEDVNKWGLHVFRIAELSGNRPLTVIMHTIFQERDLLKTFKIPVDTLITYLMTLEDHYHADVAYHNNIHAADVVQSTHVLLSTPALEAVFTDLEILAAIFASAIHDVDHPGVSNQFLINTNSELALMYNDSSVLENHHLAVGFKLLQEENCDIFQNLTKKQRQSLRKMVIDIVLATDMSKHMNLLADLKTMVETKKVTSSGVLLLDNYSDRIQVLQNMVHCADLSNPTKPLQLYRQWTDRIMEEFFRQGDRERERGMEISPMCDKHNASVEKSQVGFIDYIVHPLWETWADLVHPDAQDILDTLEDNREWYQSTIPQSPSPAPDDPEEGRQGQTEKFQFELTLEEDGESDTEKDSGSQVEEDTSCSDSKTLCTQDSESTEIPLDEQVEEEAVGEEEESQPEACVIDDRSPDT

[6] = target: Delta-type opioid receptor (Homo sapiens, UniProt P41143)
Chain of Delta-type opioid receptor (P41143 whole entry): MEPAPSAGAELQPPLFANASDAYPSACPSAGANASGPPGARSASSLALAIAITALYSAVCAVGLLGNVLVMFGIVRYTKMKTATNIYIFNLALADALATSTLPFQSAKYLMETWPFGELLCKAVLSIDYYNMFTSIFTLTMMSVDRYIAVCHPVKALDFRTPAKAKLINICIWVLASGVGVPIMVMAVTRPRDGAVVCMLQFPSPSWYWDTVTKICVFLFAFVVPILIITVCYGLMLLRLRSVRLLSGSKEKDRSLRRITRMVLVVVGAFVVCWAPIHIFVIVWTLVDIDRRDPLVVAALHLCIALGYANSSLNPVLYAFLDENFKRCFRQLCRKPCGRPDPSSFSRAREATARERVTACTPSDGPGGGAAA

[7] = target: T3, Alpha-2A adrenergic receptor (Homo sapiens, UniProt P08913); type: functional, cell-based
T3 sequence (P08913 whole entry): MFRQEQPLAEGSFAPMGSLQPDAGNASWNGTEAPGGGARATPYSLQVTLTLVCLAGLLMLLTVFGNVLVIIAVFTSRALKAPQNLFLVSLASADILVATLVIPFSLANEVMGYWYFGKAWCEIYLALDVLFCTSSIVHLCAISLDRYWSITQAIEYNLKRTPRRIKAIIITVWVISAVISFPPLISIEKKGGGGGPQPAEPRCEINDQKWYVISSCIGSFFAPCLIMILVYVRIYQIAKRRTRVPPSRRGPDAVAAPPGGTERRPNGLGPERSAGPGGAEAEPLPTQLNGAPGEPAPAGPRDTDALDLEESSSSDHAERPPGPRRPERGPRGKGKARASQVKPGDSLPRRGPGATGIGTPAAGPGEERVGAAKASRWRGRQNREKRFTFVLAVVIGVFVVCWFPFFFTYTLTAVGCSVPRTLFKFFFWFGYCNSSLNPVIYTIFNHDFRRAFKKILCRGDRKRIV

[8] = target: 5-hydroxytryptamine receptor 2B (Homo sapiens, UniProt P41595); type: functional, cell-based
Chain of 5-hydroxytryptamine receptor 2B (P41595 whole entry): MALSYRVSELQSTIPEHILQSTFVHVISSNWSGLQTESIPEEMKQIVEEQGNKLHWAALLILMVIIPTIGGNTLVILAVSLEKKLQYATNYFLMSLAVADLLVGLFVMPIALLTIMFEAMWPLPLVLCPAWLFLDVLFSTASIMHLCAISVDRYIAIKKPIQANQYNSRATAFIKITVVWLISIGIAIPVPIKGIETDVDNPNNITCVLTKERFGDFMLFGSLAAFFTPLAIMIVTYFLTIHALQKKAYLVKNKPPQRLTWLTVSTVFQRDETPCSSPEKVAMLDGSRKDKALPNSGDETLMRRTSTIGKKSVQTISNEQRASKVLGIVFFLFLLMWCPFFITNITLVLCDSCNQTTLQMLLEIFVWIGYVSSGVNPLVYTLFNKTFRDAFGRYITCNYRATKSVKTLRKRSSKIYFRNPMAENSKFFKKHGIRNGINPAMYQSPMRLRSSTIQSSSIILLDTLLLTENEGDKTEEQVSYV

Motilin receptor = Motilin receptor (Homo sapiens, UniProt O43193)
Chain of Motilin receptor (O43193 whole entry): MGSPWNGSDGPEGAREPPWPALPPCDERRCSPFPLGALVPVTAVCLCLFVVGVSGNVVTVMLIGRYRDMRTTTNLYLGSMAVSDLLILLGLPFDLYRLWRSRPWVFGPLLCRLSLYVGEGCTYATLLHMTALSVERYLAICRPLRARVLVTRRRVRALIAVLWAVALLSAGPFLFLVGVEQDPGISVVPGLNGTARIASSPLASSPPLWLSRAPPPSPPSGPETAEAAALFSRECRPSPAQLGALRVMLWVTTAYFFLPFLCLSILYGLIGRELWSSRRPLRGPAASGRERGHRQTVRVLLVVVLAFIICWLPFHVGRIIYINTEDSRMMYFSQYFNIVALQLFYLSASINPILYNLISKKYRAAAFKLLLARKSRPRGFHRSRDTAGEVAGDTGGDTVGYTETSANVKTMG

D(1A) dopamine receptor = D(1A) dopamine receptor (Homo sapiens, UniProt P21728); type: functional, cell-based
Chain of D(1A) dopamine receptor (P21728 whole entry): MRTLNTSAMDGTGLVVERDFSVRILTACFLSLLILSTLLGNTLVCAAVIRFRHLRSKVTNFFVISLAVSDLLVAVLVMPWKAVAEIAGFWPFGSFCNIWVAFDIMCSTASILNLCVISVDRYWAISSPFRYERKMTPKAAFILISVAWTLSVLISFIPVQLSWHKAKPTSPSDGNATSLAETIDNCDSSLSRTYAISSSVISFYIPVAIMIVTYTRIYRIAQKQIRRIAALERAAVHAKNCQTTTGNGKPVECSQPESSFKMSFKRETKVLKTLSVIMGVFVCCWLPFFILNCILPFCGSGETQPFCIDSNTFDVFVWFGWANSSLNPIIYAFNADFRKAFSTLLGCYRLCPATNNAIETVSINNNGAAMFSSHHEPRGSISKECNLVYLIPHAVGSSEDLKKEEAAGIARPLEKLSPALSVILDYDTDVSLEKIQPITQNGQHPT

Adenosine receptor A2a = Adenosine receptor A2a (Homo sapiens, UniProt P29274)
Chain of Adenosine receptor A2a (P29274 whole entry): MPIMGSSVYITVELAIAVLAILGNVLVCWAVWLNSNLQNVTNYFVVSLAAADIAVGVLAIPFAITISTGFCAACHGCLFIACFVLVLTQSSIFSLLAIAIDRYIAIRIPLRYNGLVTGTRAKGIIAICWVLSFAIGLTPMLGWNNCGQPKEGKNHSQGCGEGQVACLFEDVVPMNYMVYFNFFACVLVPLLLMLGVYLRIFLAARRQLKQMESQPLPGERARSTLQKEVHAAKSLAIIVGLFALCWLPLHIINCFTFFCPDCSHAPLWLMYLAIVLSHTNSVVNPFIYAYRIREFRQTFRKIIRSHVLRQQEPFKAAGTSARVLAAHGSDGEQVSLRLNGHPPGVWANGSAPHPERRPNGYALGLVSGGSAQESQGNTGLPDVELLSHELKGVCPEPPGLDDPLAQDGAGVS

D(3) dopamine receptor = D(3) dopamine receptor (Homo sapiens, UniProt P35462)
Chain of D(3) dopamine receptor (P35462 whole entry): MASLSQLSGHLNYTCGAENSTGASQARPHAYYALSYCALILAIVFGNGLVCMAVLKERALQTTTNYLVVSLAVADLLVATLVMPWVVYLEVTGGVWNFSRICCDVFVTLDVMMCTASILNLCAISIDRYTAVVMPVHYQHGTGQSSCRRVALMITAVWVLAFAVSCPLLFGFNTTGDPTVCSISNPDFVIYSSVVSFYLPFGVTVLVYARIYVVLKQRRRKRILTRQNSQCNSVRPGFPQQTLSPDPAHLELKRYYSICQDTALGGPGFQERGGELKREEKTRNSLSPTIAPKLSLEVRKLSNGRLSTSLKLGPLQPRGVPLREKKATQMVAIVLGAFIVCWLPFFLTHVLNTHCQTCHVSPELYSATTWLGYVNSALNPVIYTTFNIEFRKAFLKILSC

[9] = target: Neuronal acetylcholine receptor subunit alpha-4 (Homo sapiens, UniProt P43681)
Melanocortin receptor 3 = Melanocortin receptor 3 (Homo sapiens, UniProt P41968)
Chain of Melanocortin receptor 3 (P41968 whole entry): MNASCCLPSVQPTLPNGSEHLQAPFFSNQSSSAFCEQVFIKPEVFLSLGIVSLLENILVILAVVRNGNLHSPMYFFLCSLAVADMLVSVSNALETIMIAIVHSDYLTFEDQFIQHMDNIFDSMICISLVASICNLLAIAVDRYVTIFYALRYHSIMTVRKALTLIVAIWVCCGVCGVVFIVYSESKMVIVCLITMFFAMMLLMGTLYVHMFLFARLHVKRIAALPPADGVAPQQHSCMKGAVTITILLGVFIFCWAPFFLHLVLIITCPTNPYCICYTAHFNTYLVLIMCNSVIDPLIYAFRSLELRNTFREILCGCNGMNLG

[10] = target: Gamma-aminobutyric acid receptor subunit alpha-1 (Rattus norvegicus, UniProt P62813); type: functional
[11] = target: Sodium-dependent noradrenaline transporter (Homo sapiens, UniProt P23975)
[12] = target: T4, Equilibrative nucleoside transporter 1 (Homo sapiens, UniProt Q99808)
T4 sequence (Q99808 whole entry): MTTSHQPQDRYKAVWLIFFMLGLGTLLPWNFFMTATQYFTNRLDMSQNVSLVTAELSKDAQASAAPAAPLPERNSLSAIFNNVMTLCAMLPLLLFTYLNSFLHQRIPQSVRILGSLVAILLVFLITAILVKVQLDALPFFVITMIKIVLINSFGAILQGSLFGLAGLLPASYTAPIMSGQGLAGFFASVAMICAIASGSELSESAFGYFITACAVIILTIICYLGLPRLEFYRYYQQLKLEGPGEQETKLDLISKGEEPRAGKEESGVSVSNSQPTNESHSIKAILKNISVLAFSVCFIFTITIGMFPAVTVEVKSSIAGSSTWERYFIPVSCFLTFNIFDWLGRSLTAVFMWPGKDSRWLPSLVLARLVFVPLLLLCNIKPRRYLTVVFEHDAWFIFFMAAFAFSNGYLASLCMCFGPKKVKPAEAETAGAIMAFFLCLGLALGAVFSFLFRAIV
Also: assay procedure not described here.

Structure (SMILES) | AC50 [1] [µM] | AC50 [2] [µM] | AC50 (Vasopressin V1a receptor) [µM] | AC50 [3] [µM] | AC50 [4] [µM] | AC50 [5] [µM] | AC50 [6] [µM] | AC50 [7] [µM] | AC50 [8] [µM] | AC50 (Motilin receptor) [µM] | AC50 (D(1A) dopamine receptor) [µM] | AC50 (Adenosine receptor A2a) [µM] | AC50 (D(3) dopamine receptor) [µM] | AC50 [9] [µM] | AC50 (Melanocortin receptor 3) [µM] | AC50 [10] [µM] | AC50 [11] [µM] | AC50 [12] [µM]
CC(=O)NCCCS(=O)(=O)O [ACAMPROSATE] | > 30 | > 30 | > 30 | > 30 | > 30 | > 30 | > 30 | > 30 | > 30 | > 30 | > 30 | > 30 | > 30 | > 30 | > 30 | > 30 | – | –
CC(=O)Nc1ccc(O)cc1 [ACETAMINOPHEN] | > 30 | > 30 | > 30 | > 30 | > 30 | > 30 | > 30 | – | > 30 | > 30 | – | > 30 | > 30 | > 30 | > 30 | > 30 | > 30 | > 30
CCCSc1ccc2nc(NC(=O)OC)[nH]c2c1 [ALBENDAZOLE] | > 10 | > 30 | – | > 30 | > 10 | > 30 | > 30 | > 10 | > 10 | > 10 | > 10 | > 30 | > 30 | > 10 | > 30 | > 10 | > 30 | > 30
CC(C)C[C@H]1C(=O)N2CCC[C@H]2[C@]2(O)O[C@](NC(=O)[C@@H]3C=C4c5cccc6[nH]c(Br)c(c56)C[C@H]4N(C)C3)(C(C)C)C(=O)N12 [BROMOCRIPTINE] | > 30 | > 30 | > 30 | > 30 | 25 | 5.5 | > 30 | – | 25 | > 30 | 1.52 | > 30 | 0.105 | > 30 | > 30 | > 30 | > 30 | 13
CN(C)/N=N/c1[nH]cnc1C(N)=O [DACARBAZINE] | > 10 | > 30 | – | > 10 | > 10 | > 30 | > 30 | > 10 | > 10 | > 10 | > 10 | > 10 | > 30 | > 10 | > 10 | > 10 | > 10 | > 10
O=C(Cc1ccc(-c2ccccc2)cc1)Nc1ccccn1 [DIFENPIRAMIDE] | – | > 30 | – | – | – | > 30 | > 30 | > 30 | > 30 | – | > 30 | – | > 30 | – | – | > 30 | – | –
O=C(O)c1cc(O)ccc1O [GENTISIC ACID] | – | – | – | 18 | – | – | – | – | – | – | – | – | – | – | – | – | – | –
